System: not given
Test: not given
Conditions: not given

Structure (SMILES)	melting point
CC1(C)C[C@@H](c2ccccc2)Nc2c(C(=O)NC34CC5CC(CC(C5)C3)C4)cnn21 [Example 1029, (5S)-N-1-adamantyl-7,7-dimethyl-5-phenyl-4,5,6,7-tetrahydropyrazolo[1,5-a]pyrimidine-3-carboxamide]	226 to 227 °C
CC1(C)C[C@H](c2ccccc2)Nc2c(C(=O)NC34CC5CC(CC(C5)C3)C4)cnn21 [Example 1030, (5R)-N-1-adamantyl-7,7-dimethyl-5-phenyl-4,5,6,7-tetrahydropyrazolo[1,5-a]pyrimidine-3-carboxamide]	226 to 227 °C
CCC(CC)(NC(=O)c1c(C)nn2c1N[C@H](c1ccccc1)CC2(C)C)c1ccc(Cl)cc1 [Example 1041, (5S)-N-(1-(4-chlorophenyl)-1-ethylpropyl)-2,7,7-trimethyl-5-phenyl-4,5,6,7-tetrahydropyrazolo[1,5-a]pyrimidine-3-carboxamide]	131 to 132 °C
CCC(CC)(NC(=O)c1c(C)nn2c1N[C@@H](c1ccccc1)CC2(C)C)c1ccc(Cl)cc1 [Example 1042, (5R)-N-(1-(4-chlorophenyl)-1-ethylpropyl)-2,7,7-trimethyl-5-phenyl-4,5,6,7-tetrahydropyrazolo[1,5-a]pyrimidine-3-carboxamide]	128 to 129 °C
CCC(CC)(NC(=O)c1c(C)nn2c1N[C@@H](c1ccccc1)CC2(C)C)c1ccc(O)cc1 [Example 1064, (5R)-N-(1-ethyl-1-(4-hydroxyphenyl)propyl)-2,7,7-trimethyl-5-phenyl-4,5,6,7-tetrahydropyrazolo[1,5-a]pyrimidine-3-carboxamide]	160 to 161 °C
CCC(CC)(NC(=O)c1cnn2c1N[C@@H](c1ccccc1)CC2(C)C)c1ccc(SC)cc1 [Example 1067, (5R)-N-(1-ethyl-1-(4-(methylthio)phenyl)propyl)-7,7-dimethyl-5-phenyl-4,5,6,7-tetrahydropyrazolo[1,5-a]pyrimidine-3-carboxamide]	151 to 152 °C
CCC(CC)(NC(=O)c1c(C)nn2c1N[C@@H](c1ccccc1)CC2(C)C)c1ccc(C(=O)O)cc1 [Example 1076, (5R)-4-(1-ethyl-1-(((-2,7,7-trimethyl-5-phenyl-4,5,6,7-tetrahydropyrazolo[1,5-a]pyrimidin-3-yl)carbonyl)amino)propyl) benzoic acid]	234 to 236 °C
CCC1(CC)C[C@@H](O)CN1C(=O)c1c(C)nn2c1N[C@@H](c1ccccc1)CC2(C)C [Example 1097, (3R)-5,5-diethyl-1-(((5R)-2,7,7-trimethyl-5-phenyl-4,5,6,7-tetrahydropyrazolo[1,5-a]pyrimidin-3-yl)carbonyl)-3-pyrrolidinol]	162 to 164 °C
CCC1(CC)C[C@@H](OC)CN1C(=O)c1c(C)nn2c1N[C@@H](c1ccccc1)CC2(C)C [Example 1099, (5R)-3-(((4R)-2,2-diethyl-4-methoxy-1-pyrralidinyl)carbanyl)-2,7,7-trimethyl-5-phenyl-4,5,6,7-tetrahydropyrazolo[1,5-a]pyrimidine]	132 to 134 °C
CCC1(CC)C[C@@H](OCc2ccccc2)CN1C(=O)c1cnn2c1N[C@@H](c1ccccc1)CC2(C)C [Example 1103, (5R)-3-(((4R)-4-(benzyloxy)-2,2-diethyl-1-pyrrolidinyl)carbonyl)-7,7-dimethyl-5-phenyl-4,5,6,7-tetrahydropyrazolo[1,5-a]pyrimidine]	118 to 120 °C
CCC1(CC)C[C@@H](OCc2ccccc2)CN1C(=O)c1cnn2c1N[C@H](c1ccccc1)CC2(C)C [Example 1105, (5S)-3-(((4R)-4-(benzyloxy)-2,2-diethyl-1-pyrrolidinyl)carbonyl)-7,7-dimethyl-5-phenyl-4,5,6,7-tetrahydropyrazolo[1,5-a]pyrimidine]	172 to 174 °C
CCC1(CC)C[C@H](OCc2ccccc2)CN1C(=O)c1cnn2c1N[C@@H](c1ccccc1)CC2(C)C [Example 1107, (5R)-3-(((4S)-4-(benzyloxy)-2,2-diethy-1-pyrrolidinyl)carbonyl)-7,7-dimethyl-5-phenyl-4,5,6,7-tetrahydropyrazolo[1,5-a]pyrimidine]	173 to 175 °C
CCC1(CC)C[C@H](OCc2ccccc2)CN1C(=O)c1cnn2c1N[C@H](c1ccccc1)CC2(C)C [Example 1109, (5S)-3-(((4S)-4-(benzyloxy)-2,2-diethy-1-pyrrolidinyl)carbonyl)-7,7-dimethyl-5-phenyl-4,5,6,7-tetrahydropyrazolo[1,5-a]pyrimidine]	116 to 118 °C
CCC1(CC)C[C@@H](OC)CN1C(=O)c1cnn2c1N[C@@H](c1ccccc1)CC2(C)C [Example 1111, (5R)-3-(((4R)-2,2-diethyl-4-methoxy-1-pyrrolidinyl)carbonyl)-7,7-dimethyl-5-phenyl-4,5,6,7-tetrahydropyrazolo[1,5-a]pyrimidine]	148 to 150 °C
CCC1(CC)C[C@H](OC)CN1C(=O)c1cnn2c1N[C@@H](c1ccccc1)CC2(C)C [Example 1113, (5R)-3-(((4S)-2,2-diethyl-4-methoxy-1-pyrrolidinyl)carbonyl)-7,7-dimethyl-5-phenyl-4,5,6,7-tetrahydropyrazolo[1,5-a]pyrimidine]	122 to 124 °C
CCC1(CC)C[C@@H](O)CN1C(=O)c1cnn2c1N[C@@H](c1ccccc1)CC2(C)C [Example 1115, (3R)-1-(((5R)-7,7-dimethyl-5-phenyl-4,5,6,7-tetrahydropyrazolo[1,5-a]pyrimidin-3-yl)carbonyl)-5,5-diethyl-3-pyrrolidinol]	250 to 252 °C
CCC1(CC)C[C@H](O)CN1C(=O)c1cnn2c1N[C@@H](c1ccccc1)CC2(C)C [Example 1117, (3S)-1-(((5R)-7,7-dimethyl-5-phenyl-4,5,6,7-tetrahydropyrazolo[1,5-a]pyrimidin-3-yl)carbonyl)-5,5-diethyl-3-pyrrolidinol]	249 to 251 °C
CC(C)[C@H]1CC[C@H](C)CC1OC(=O)c1cnn2c1NC(c1ccccc1)CC2(C)C (stereo partly drawn) [Example 1140, (2R,5S)-2-isopropyl-5-methylcyclohexyl 7,7-dimethyl-5-phenyl-4,5,6,7-tetrahydropyrazolo[1,5-a]pyrimidine-3-carboxylate]	123 to 124 °C
CCC(CC)(c1ccc(C)cc1)c1nnc(-c2c(C)nn3c2N[C@@H](c2ccccc2)CC3(C)C)s1 [Example 1143, (5R)-3-(5-(1-ethyl-1-(4-methylphenyl)propyl)-1,3,4-thiadiazol-2-yl)-2,7,7-trimethyl-5-phenyl-4,5,6,7-tetrahydropyrazolo[1,5-a]pyrimidine]	132 to 134 °C
CCC(CC)(c1ccccc1)c1nnc(-c2c(C)nn3c2N[C@@H](c2ccccc2)CC3(C)C)s1 [Example 1145, (5R)-3-(5-(1-ethyl-1-phenylpropyl)-1,3,4-thiadiazol-2-yl)-2,7,7-trimethyl-5-phenyl-4,5,6,7-tetrahydropyrazolo[1,5-a]pyrimidine]	174 to 175 °C

Molecular target: T1, human CaR (Homo sapiens, UniProt P41180)
T1 construct: expressed in transfected cells; host or cells: CHO-K1 cells stably transfected with pMSRαneo-CaR (cDNA amplified from human kidney cDNA); membrane fraction used
T1 sequence (P41180 20-1078): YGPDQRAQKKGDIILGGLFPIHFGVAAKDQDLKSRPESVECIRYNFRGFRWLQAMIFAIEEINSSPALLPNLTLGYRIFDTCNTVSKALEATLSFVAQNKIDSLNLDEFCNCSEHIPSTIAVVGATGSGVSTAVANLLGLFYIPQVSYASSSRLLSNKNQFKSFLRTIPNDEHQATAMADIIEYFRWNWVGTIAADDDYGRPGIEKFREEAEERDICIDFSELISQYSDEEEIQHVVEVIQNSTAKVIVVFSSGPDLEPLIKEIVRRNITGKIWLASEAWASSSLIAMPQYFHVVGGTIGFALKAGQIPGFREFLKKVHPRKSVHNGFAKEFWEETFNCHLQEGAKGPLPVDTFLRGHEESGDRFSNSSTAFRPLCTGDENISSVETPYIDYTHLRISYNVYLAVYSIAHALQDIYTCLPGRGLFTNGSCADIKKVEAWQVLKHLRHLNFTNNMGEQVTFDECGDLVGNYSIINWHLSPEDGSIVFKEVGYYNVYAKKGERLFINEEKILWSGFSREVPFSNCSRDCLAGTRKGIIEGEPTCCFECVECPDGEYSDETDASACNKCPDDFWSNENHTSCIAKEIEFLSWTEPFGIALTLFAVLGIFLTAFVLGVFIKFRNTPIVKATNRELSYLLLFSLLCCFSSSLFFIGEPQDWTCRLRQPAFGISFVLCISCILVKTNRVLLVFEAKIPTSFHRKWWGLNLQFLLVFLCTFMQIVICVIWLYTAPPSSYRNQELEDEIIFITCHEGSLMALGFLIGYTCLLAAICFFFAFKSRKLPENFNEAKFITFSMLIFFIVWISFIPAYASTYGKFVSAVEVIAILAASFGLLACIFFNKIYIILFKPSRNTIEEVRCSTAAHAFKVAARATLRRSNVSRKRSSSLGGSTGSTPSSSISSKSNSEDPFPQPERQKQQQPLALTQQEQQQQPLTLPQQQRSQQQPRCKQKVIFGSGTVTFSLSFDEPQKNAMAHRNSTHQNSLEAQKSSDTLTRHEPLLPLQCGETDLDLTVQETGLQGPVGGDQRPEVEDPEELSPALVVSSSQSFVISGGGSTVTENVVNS
Test: [35S]-GTPγS binding assay in membrane fraction of human CaR-expressing CHO cells
Format: biochemical
Conditions: test compound 10 μM; relative to binding with 6 mM calcium only (100×(t′−b)/(t−b)); compound marked agonist
Method: Preparation of membrane fraction is described bellow. The human CaR-expressing CHO cells were inoculated to a F500 flask in 1.8×10^5 cells/flask followed by cultivation for 2 days. The cells were scraped with 10 ml of Phosphate-Buffered Saline containing 0.02% EDTA. After centrifugation (2000 rpm, 10 min) of the cells, the cell pellet was resuspended into 12 ml of homogenate buffer solution (10 mM NaHCO3, 1 mM EDTA, 1× Protease inhibitor cocktail (pH 7.4)) and homogenized by Polytron™ (20000 rpm, 1 min). The cell debris was removed by centrifugation (2000 rpm, 10 min), and then the CaR-expressing cell membrane fraction was collected by ultracentrifugation (Beckman 70 Ti type rotor, 30000 rpm, 1 hour).
The GTPγS binding activity was measured as follows. Twenty μg of the CaR-expressing cell membrane was incubated with test compounds for 10 min. The assays were carried out at room temperature for an hour in a reaction solution mixture containing 20 mM HEPES (pH. 7.4), 100 mM NaCl, 1 mM MgCl2, 167 μg/ml DTT, 5 μM guanosine 5′-diphosphate, 0.4 nM [^35S]-guanosine 5′-(γ-thio)triphosphate ([^35S]-GTPγS) and 6 mM CaCl2. The mixture was filtered through a GF/C filter. After washing fourth with 300 μl of Phosphate-Buffered Saline, the amount of [^35S]-GTPγS bound to the filter was measured using a Top-count scintillation counter.
Effects of test compounds on [^35S]-GTPγS binding were expressed in percentage terms. This was calculated from the equation [100×(t′−b)]/(t−b) where t′, t and b are values of [^35S]-GTPγS binding (dpm), t′ in the presence of 6 mM calcium and the test compound, t in the presence of 6 mM calcium only and b in the absence of both 6 mM calcium and the test compound.

Structure (SMILES)	[35S]-GTPγS binding (%)
O=C(NCC(c1ccccc1)N1CCCC1)c1cnn2c1N[C@@H](c1ccccc1)C[C@H]2C(F)(F)F (stereo in doubt) [Example 111, 5-phenyl-N-(2-phenyl-2-(1-pyrrolidinyl)ethyl)-7-(trifluoromethyl)-4,5,6,7-tetrahydropyrazolo[1,5-a]pyrimidine-3-carboxamide]	256 (10 μM) %
